# Measured values taken from US9340507B2, “Substituted 4-pyridones and their use as inhibitors of neutrophil elastase activity” (Boehringer Ingelheim International GmbH, priority 2012, dated 2016).
# System: not listed separately
# Assay: Determination of aqueous solubility from DMSO stock solutions (kinetic solubility method)
# Assay type: physicochemical
# Conditions: McIlvaine buffer pH 6.8, 24 h shaking, 2.5% DMSO, range 0.001 to 0.125 mg/ml
# Procedure: Determination of Aqueous Solubility from DMSO Stock Solutions (“Kinetic Solubility Method”)
# The aqueous solubility of examples of this invention is determined by comparing the amount dissolved in buffer to the amount dissolved in an acetonitrile/water (1/1) solution. Starting from a 10 mM DMSO stock solution, aliquots are diluted with acetonitrile/water (1/1) and McIlvaine buffer pH 6.8, respectively. After 24 h of shaking, the liquid phase is filtered and analyzed by LC-UV. The amount dissolved in buffer is compared to the amount dissolved in the acetonitrile/water (1/1) solution. Solubility is measured from 0.001 to 0.125 mg/ml at a DMSO concentration of 2.5%.
row,aqueous solubility at pH 6.8 [mg/mL],SMILES
1,0.081,"Cc1c(-c2cccc(C(F)(F)F)c2)c(=O)c(C(=O)NCc2ccc([S+](C)[O-])cc2)cn1C(C)C (single isomer, unassigned) [Example 27.1A]"
2,0.076,Cc1c(-c2cccc(C(F)F)c2)c(=O)c(C(=O)NCc2ccc(S(C)(=O)=O)cc2)cn1C(C)C [Example 4.14]

# Biological target: Human neutrophil elastase (Homo sapiens (Human), UniProt P08246)
# Sequence (P08246 30-267): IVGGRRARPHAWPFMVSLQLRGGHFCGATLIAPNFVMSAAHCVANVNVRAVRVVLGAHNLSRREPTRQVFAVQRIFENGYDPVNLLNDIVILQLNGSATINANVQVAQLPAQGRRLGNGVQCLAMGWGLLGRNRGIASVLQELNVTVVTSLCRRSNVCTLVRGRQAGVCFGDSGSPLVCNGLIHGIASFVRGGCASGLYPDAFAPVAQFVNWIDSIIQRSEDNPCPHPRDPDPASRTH
# Assay: Human Neutrophil Elastase Assay
# Assay type: biochemical
# Conditions: substrate MeOSuc-Ala-Ala-Pro-Val-AMC 250 μM, pH 7.5, fluorescence
row,SMILES,IC50 [nM]
1,"Cc1c(-c2cccc(C(F)(F)F)c2)c(=O)c(C(=O)NCc2ccc([S+](C)[O-])cc2)cn1C(C)C (single isomer, unassigned) [Example 27.1A]",5.4
2,Cc1c(-c2cccc(C(F)F)c2)c(=O)c(C(=O)NCc2ccc(S(C)(=O)=O)cc2)cn1C(C)C [Example 4.14],11
3,"Cc1c(-c2cccc(C(F)(F)F)c2)c(=O)c(C(=O)NCc2ccc(S(=O)(=O)C3CC3)cc2)cn1C(C)C [Example 31, 1-Isopropyl-6-methyl-4-oxo-5-(3-trifluoromethyl-phenyl)-1,4-dihydro-pyridine-3-carboxylic acid 4-cyclopropanesulfonyl-benzylamide]",5.2
4,"Cc1c(-c2cccc(C(F)(F)F)c2)c(=O)c(C(=O)NCc2ccc(S(C)(=O)=O)c(F)c2)cn1C(C)C [Example 32, 1-Isopropyl-6-methyl-4-oxo-5-(3-trifluoromethyl-phenyl)-1,4-dihydro-pyridine-3-carboxylic acid 3-fluoro-4-methanesulfonyl-benzylamide]",15
5,"Cc1c(-c2cccc(C(F)F)c2)c(=O)c(C(=O)NCc2ccc(S(C)(=O)=O)c(F)c2)cn1C(C)C [Example 33, 5-(3-Difluoromethyl-phenyl)-1-isopropyl-6-methyl-4-oxo-1,4-dihydro-pyridine-3-carboxylic acid 3-fluoro-4-methanesulfonyl-benzylamide]",16
6,"Cc1c(-c2cccc(C(F)(F)F)c2)c(=O)c(C(=O)NCc2ccc(S(C)(=O)=O)cc2F)cn1C(C)C [Example 34, 1-Isopropyl-6-methyl-4-oxo-5-(3-trifluoromethyl-phenyl)-1,4-dihydro-pyridine-3-carboxylic acid 2-fluoro-4-methanesulfonyl-benzylamide]",26
7,"Cc1c(-c2cccc(C(F)F)c2)c(=O)c(C(=O)NCc2ccc(S(C)(=O)=O)cc2F)cn1C(C)C [Example 35, 5-(3-Difluoromethyl-phenyl)-1-isopropyl-6-methyl-4-oxo-1,4-dihydro-pyridine-3-carboxylic acid 2-fluoro-4-methanesulfonyl-benzylamide]",17
8,"Cc1cc(S(C)(=O)=O)ccc1CNC(=O)c1cn(C(C)C)c(C)c(-c2cccc(C(F)(F)F)c2)c1=O [Example 36, 1-Isopropyl-6-methyl-4-oxo-5-(3-trifluoromethyl-phenyl)-1,4-dihydro-pyridine-3-carboxylic acid 4-methanesulfonyl-2-methyl-benzylamide]",19

# The remaining lines, values ahead:
row,IC50 [nM],SMILES
1,27,"Cc1cc(S(C)(=O)=O)ccc1CNC(=O)c1cn(C(C)C)c(C)c(-c2cccc(C(F)F)c2)c1=O [Example 37, 5-(3-Difluoromethyl-phenyl)-1-isopropyl-6-methyl-4-oxo-1,4-dihydro-pyridine-3-carboxylic acid 4-methanesulfonyl-2-methyl-benzylamide]"
2,5.3,"Cc1c(-c2cccc(C(F)(F)F)c2)c(=O)c(C(=O)NCc2cn3c(n2)S(=O)(=O)CC3)cn1C(C)C [Example 38, 1-Isopropyl-6-methyl-4-oxo-5-(3-trifluoromethyl-phenyl)-1,4-dihydro-pyridine-3-carboxylic acid (1,1-dioxo-2,3-dihydro-1H-1λ^6-imidazo[2,1-b]thiazol-6-ylmethyl)-amide]"
3,31,"Cc1c(-c2cccc(C(F)F)c2)c(=O)c(C(=O)NCc2ccc(S(C)(=O)=O)s2)cn1C(C)C [Example 40, 5-(3-Difluoromethyl-phenyl)-1-isopropyl-6-methyl-4-oxo-1,4-dihydro-pyridine-3-carboxylic acid (5-methanesulfonyl-thiophen-2-ylmethyl)-amide]"
4,8.1,"COC[C@H](C)n1cc(C(=O)NCc2ccc(S(C)(=O)=O)cc2)c(=O)c(-c2cccc(C(F)F)c2)c1C [Example 42, (S)-5-(3-Difluoromethyl-phenyl)-1-(2-methoxy-1-methyl-ethyl)-6-methyl-4-oxo-1,4-dihydro-pyridine-3-carboxylic acid 4-methanesulfonyl-benzylamide]"
5,45,"COC[C@@H](C)n1cc(C(=O)NCc2ccc(S(C)(=O)=O)cc2)c(=O)c(-c2cccc(C(F)F)c2)c1C [Example 44, (R)-5-(3-Difluoromethyl-phenyl)-1-(2-methoxy-1-methyl-ethyl)-6-methyl-4-oxo-1,4-dihydro-pyridine-3-carboxylic acid 4-methanesulfonyl-benzylamide]"
6,34,"Cc1c(-c2cccc(C(F)(F)F)c2)c(=O)c(C(=O)NCc2ccc(S(C)(=O)=O)cc2)cn1CCF [Example 45, 1-(2-Fluoro-ethyl)-6-methyl-4-oxo-5-(3-trifluoromethyl-phenyl)-1,4-dihydro-pyridine-3-carboxylic acid 4-methanesulfonyl-benzylamide]"
7,46,"Cc1c(-c2cccc(C(F)(F)F)c2)c(=O)c(C(=O)NCc2ccc(S(C)(=O)=O)cc2)cn1CC(F)F [Example 46, 1-(2,2-Difluoro-ethyl)-6-methyl-4-oxo-5-(3-trifluoromethyl-phenyl)-1,4-dihydro-pyridine-3-carboxylic acid 4-methanesulfonyl-benzylamide]"
8,38,"COc1cc(S(C)(=O)=O)ccc1CNC(=O)c1cn(C(C)C)c(C)c(-c2cccc(C(F)(F)F)c2)c1=O [Example 47, 1-Isopropyl-6-methyl-4-oxo-5-(3-trifluoromethyl-phenyl)-1,4-dihydro-pyridine-3-carboxylic acid 4-methanesulfonyl-2-methoxy-benzylamide]"
9,11,"Cc1c(-c2cccc(C(F)(F)F)c2)c(=O)c(C(=O)NCc2ccc3c(c2)C=CS3(=O)=O)cn1C(C)C [Example 48, 1-Isopropyl-6-methyl-4-oxo-5-(3-trifluoromethyl-phenyl)-1,4-dihydro-pyridine-3-carboxylic acid (1,1-dioxo-1H-1λ^6-benzo[b]thiophen-5-ylmethyl)-amide]"
10,47,"COc1cc(CNC(=O)c2cn(C(C)C)c(C)c(-c3cccc(C(F)(F)F)c3)c2=O)ccc1S(C)(=O)=O [Example 49, 1-Isopropyl-6-methyl-4-oxo-5-(3-trifluoromethyl-phenyl)-1,4-dihydro-pyridine-3-carboxylic acid 4-methanesulfonyl-3-methoxy-benzylamide]"
11,7.8,"Cc1c(-c2cccc(C(F)F)c2)c(=O)c(C(=O)NCc2ccc3c(c2)C=CS3(=O)=O)cn1C(C)C [Example 50, 5-(3-Difluoromethyl-phenyl)-1-isopropyl-6-methyl-4-oxo-1,4-dihydro-pyridine-3-carboxylic acid (1,1-dioxo-1H-1λ^6-benzo[b]thiophen-5-ylmethyl)-amide1]"
